One assay concerns the target human recombinant HDAC1 (Homo sapiens, UniProt Q13547). Put plainly: HDAC activity assay, recombinant HDAC1. It is filed as biochemical.
The target in another assay is human recombinant HDAC2 (Homo sapiens, UniProt Q92769). Put plainly: HDAC activity assay, recombinant HDAC2. It is filed as biochemical.
The target in the next assay is human recombinant HDAC3 (Homo sapiens, UniProt O15379). The experiment in a line: HDAC activity assay, recombinant HDAC3. The class given is biochemical.
Sequence of human recombinant HDAC3 (O15379 whole entry): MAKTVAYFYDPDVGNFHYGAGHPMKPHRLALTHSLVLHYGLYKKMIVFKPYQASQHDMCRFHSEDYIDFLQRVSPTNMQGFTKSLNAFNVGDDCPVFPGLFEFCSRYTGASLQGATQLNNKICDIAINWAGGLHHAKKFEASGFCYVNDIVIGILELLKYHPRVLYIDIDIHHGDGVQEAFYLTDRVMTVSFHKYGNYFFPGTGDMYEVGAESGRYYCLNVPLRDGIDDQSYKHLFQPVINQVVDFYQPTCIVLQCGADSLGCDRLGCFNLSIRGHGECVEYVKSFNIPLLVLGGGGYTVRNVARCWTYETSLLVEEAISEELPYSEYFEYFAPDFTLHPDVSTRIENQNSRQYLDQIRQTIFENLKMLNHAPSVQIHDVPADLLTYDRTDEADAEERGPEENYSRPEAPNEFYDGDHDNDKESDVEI
Sequence of human recombinant HDAC3 (Q9Y618 395-489 partner limits assumed): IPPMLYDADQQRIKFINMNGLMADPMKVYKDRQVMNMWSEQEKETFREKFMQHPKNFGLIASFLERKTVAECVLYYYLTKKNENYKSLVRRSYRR
Assay [1] concerns the target T1, recombinant HDAC8 (purified from E. coli) (Homo sapiens, UniProt Q9BY41).
T1 sequence (Q9BY41 1-377): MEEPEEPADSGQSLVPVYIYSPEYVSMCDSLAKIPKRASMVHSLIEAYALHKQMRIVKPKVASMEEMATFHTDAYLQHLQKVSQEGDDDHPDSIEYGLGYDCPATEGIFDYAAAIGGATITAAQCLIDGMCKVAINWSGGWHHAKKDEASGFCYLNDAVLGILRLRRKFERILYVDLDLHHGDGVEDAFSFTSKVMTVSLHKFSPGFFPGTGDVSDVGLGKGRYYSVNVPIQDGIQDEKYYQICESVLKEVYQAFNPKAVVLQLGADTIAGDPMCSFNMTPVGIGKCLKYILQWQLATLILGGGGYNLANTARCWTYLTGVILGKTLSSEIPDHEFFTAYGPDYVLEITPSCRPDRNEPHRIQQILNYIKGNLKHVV
The experiment in a line: HDAC activity assay, recombinant HDAC8. The class given is biochemical.

For another assay, the system named is MCF-7 ER(+) cells. Put plainly: Cytotoxicity assay. It is filed as cell-based, human.
The next assay has as its system MCF-7 cells. The note with it: MCF-7, 48 h, 4-OHT 10 μM; ref Bicaku et al. [9b]; cited from earlier work.
Assay [2] concerns the target T2, ERα (Homo sapiens, UniProt P03372).
T2 sequence (P03372 1-595): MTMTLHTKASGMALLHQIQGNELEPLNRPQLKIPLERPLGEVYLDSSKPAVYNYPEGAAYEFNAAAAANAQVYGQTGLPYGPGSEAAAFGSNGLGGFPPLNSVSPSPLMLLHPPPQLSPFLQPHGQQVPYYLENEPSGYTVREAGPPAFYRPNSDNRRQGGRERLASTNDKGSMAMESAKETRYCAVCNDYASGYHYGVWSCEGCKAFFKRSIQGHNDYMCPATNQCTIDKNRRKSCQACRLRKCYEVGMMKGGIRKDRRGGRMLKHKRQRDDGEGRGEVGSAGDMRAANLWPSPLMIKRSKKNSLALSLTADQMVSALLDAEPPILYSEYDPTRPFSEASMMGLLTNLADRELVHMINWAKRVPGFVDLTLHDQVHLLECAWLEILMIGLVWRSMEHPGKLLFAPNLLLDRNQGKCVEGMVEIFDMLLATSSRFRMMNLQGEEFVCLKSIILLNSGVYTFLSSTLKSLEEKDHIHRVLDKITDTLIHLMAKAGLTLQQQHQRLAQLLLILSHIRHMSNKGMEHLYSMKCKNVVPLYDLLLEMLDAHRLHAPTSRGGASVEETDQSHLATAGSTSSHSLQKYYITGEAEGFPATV
Put plainly: Inhibition of 17β estradiol induced ERE-luciferase activity in MCF-7 cells. It is filed as cell-based. The note with it: cotreatment with E2.

Assay [3] has as its target T2, ERα. The experiment in a line: Ishikawa alkaline phosphatase assay. It is filed as cell-based.
In the next assay the test system is MDA-MB-231 ER(−) cells. Put plainly: Cytotoxicity assay. The conditions noted are these: hybrid molecules 10 μM; 24, 48 and 72 h. The class given is cell-based, human.

Sequence of human recombinant HDAC1 (Q13547 whole entry): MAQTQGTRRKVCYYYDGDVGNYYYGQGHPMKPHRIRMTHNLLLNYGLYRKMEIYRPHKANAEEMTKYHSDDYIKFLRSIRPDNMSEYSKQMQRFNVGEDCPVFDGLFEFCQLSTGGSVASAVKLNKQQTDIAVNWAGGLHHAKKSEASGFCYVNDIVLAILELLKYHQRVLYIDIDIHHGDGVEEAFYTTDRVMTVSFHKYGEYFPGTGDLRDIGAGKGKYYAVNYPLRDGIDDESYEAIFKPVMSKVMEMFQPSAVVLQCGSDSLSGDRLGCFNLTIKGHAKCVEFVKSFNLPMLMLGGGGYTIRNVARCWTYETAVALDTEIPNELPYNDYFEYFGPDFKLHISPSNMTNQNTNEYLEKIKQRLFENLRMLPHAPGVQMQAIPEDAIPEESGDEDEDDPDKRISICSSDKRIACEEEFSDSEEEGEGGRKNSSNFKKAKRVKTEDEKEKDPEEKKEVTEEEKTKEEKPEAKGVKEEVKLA
Sequence of human recombinant HDAC2 (Q92769 whole entry): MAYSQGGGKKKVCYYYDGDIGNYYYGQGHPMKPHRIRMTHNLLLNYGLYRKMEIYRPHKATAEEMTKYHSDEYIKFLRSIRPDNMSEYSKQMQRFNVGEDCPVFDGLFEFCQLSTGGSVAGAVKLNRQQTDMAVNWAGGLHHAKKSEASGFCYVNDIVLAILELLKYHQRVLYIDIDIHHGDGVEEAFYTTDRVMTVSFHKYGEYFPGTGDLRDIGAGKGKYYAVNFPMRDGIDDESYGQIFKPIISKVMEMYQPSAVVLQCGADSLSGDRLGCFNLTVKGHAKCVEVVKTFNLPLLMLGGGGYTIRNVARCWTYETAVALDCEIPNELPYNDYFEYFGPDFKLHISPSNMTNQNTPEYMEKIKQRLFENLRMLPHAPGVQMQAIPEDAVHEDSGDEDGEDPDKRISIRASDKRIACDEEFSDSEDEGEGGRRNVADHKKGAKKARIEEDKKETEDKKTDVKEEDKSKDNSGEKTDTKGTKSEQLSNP

In the case of `O=C(CCCCn1cc(-c2ccc(C(=O)c3c(-c4ccc(O)cc4)sc4cc(O)ccc34)cc2)nn1)NO` [15a, N-hydroxy-5-(4-(4-(6-hydroxy-2-(4-hydroxyphenyl)benzo[b]thiophene-3-carbonyl)phenyl)-1H-1,2,3-triazol-1-yl)pentanamide], the IC50 on human recombinant HDAC1 came to 8390 ± 300 nM; at human recombinant HDAC2, 19200 ± 650 nM; at human recombinant HDAC3, 5740 ± 530 nM; in assay [1] it was 23500 ± 1500 nM.

For the compound `CC/C(=C(\c1ccc(O)cc1)c1ccc(OCCN(C)C)cc1)c1ccccc1` [4OHT, 4-hydroxytamoxifen], the “Cell death, combination with SAHA” value in the assay with MCF-7 ER(+) cells (ER(+) MCF-7 cells, 72 h combination treatment) is “modest but significantly increased cell death”. Further, in the assay on MCF-7 cells, the “Increase in apoptosis in combination with SAHA over SAHA alone” value was “approximately 10%”.

For the compound `Oc1ccc(-c2sc3cc(O)ccc3c2Oc2ccc(OCCN3CCCCC3)cc2)cc1` [DMA, desmethylarzoxifene], the “Toxicity towards MCF-7 cells” value in the assay on MCF-7 ER(+) cells (10 μM, 72 h treatment) is on record as “toxic”.

For the compound `O=C(CCCCCNC(=O)c1c(-c2ccc(O)cc2)sc2cc(O)ccc12)NO` [8a, 6-hydroxy-N-(6-(hydroxyamino)-6-oxohexyl)-2-(4-hydroxyphenyl)benzo[b]thiophene-3-carboxamide], the IC50 is 596 ± 51 nM at human recombinant HDAC1, 2440 ± 20 nM on human recombinant HDAC2, 214 ± 6 nM on human recombinant HDAC3 and 719 ± 63 nM in assay [1].

As to `O=C(Nc1cc(-c2ccccc2)ccc1O)c1c(-c2ccc(O)cc2)sc2cc(O)ccc12` [compound 10, 6-hydroxy-N-[4-hydroxy-(1,1′-biphenyl)-3-yl]-2-(hydroxyphenyl)benzo[b]thiophene-3-carboxamide], on human recombinant HDAC1 (pre-incubation 3 h), the “% inhibition of HDAC1” value is recorded as 21–34%. For the same compound, the “% inhibition of HDAC3” value on human recombinant HDAC3 (pre-incubation 3 h) was 0–12%.

In the case of `O=C(CCCCCCNC(=O)c1c(-c2ccc(O)cc2)sc2cc(O)ccc12)NO` [8b, 6-hydroxy-N-(7-(hydroxyamino)-7-oxoheptyl)-2-(4-hydroxyphenyl)benzo[b]thiophene-3-carboxamide], the “Inhibition of estrogenic response (antiestrogenic activity), ERE-luciferase reporter” value at ERα [2] is listed as “concentration dependent inhibition of estrogenic response”.

As to `O=C(CCCCCn1cc(-c2ccc(C(=O)c3c(-c4ccc(O)cc4)sc4cc(O)ccc34)cc2)nn1)NO` [15b, N-hydroxy-6-(4-(4-(6-hydroxy-2-(4-hydroxyphenyl)benzo[b]thiophene-3-carbonyl)phenyl)-1H-1,2,3-triazol-1-yl)hexanamide], the “Inhibition of estrogenic response (antiestrogenic activity), ERE-luciferase reporter” value at ERα [2] is on record as “concentration dependent inhibition of estrogenic response”. This compound also returned an IC50 on ERα [3] of 2900 ± 300 nM. Besides, the “Cell death in MDA-MB-231 ER(−) cells” value in the assay with MDA-MB-231 ER(−) cells is reported as “caused significant cell death”.

What is called IC50 is the point on the concentration scale where inhibition reaches its midpoint.
